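A five-concentration, 48-hour dose response in 96-well plates underlies each endpoint, interpolated linearly between surrounding concentrations. The concentration for full growth arrest is given as TGI.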
Tests used:
Test in all cases: NCI tumour cell line growth inhibition, 48 h
[1] = test system: 786-0 renal
[2] = test system: A498 renal
[3] = test system: A549 NSCLC
[4] = test system: ACHN renal
[5] = test system: BT-549 breast
[6] = test system: CAKI-1 renal
[7] = test system: DU-145 prostate
[8] = test system: EKVX NSCLC
[9] = test system: HCT-116 colon
[10] = test system: HCT-15 colon
[11] = test system: HOP-62 NSCLC
[12] = test system: HOP-92 NSCLC
[13] = test system: HS 578T breast
[14] = test system: HT29 colon
[15] = test system: IGROV1 ovarian
[16] = test system: K-562 leukemia
[17] = test system: KM12 colon
[18] = test system: LOX IMVI melanoma
[19] = test system: M14 melanoma
[20] = test system: MALME-3M melanoma
[21] = test system: MCF7 breast
[22] = test system: MDA-MB-231 breast
[23] = test system: MDA-MB-435
[24] = test system: MDA-N
[25] = test system: MOLT-4 leukemia
[26] = test system: NCI-H23 lung
[27] = test system: NCI-H460 lung
[28] = test system: NCI-H522 lung
[29] = test system: NCI/ADR-RES ovarian
[30] = test system: OVCAR-3 ovarian
[31] = test system: OVCAR-4 ovarian
[32] = test system: OVCAR-5 ovarian
[33] = test system: OVCAR-8 ovarian
[34] = test system: PC-3 prostate
[35] = test system: RPMI-8226 leukemia
[36] = test system: RXF 393 renal
[37] = test system: SF-268 CNS
[38] = test system: SF-295 CNS
[39] = test system: SK-MEL-2 melanoma
[40] = test system: SK-MEL-28 melanoma
[41] = test system: SK-OV-3 ovarian
[42] = test system: SN12C renal
[43] = test system: SNB-19 CNS
[44] = test system: SNB-75 CNS
[45] = test system: SR leukemia
[46] = test system: SW-620 colon
[47] = test system: T-47D breast
[48] = test system: TK-10 renal
[49] = test system: U251 CNS
[50] = test system: UACC-257 melanoma
[51] = test system: UACC-62 melanoma
[52] = test system: UO-31 renal
[53] = test system: CCRF-CEM leukemia
[54] = test system: COLO 205 colon
[55] = test system: HCC-2998 colon
[56] = test system: HL-60(TB) leukemia
[57] = test system: NCI-H226 lung
[58] = test system: SF-539 CNS
[59] = test system: SK-MEL-5 melanoma
[60] = test system: DMS 114 small cell lung
[61] = test system: DMS 273 small cell lung
[62] = test system: KM20L2 colon
[63] = test system: LXFL 529 NSCLC
[64] = test system: M19-MEL melanoma
[65] = test system: RXF-631 renal

Measured: TGI

[N-]=[N+]=Nc1ccccc1-c1ccccc1[N+](=O)[O-]
65.1 µM: [25]
71.7 µM: [50]
99 µM: [27]
45.4 µM: [28]
92.1 µM: [29]
not listed: [53] | [54] | [55] | [56] | [57] | [58] | [59] | [60] | [61] | [62] | [63] | [64] | [65]
> 100 µM: all other assays above

C[C@@H](CC(O)C(O)C(C)(C)O)C1CCC23CC12CCC1[C@@]2(C)CCC(O)C(C)(C)C2CC(OC2OC(CO)C(O)C(O)C2O)[C@]13C (stereo not given in full)
not listed: [45] | [60] | [61] | [62] | [63] | [64] | [65]
> 10 µM: all other assays above

O=C1CN(c2ccccc2)Cc2nc(Cl)ccc2N1
not listed: [2] | [26] | [30] | [60] | [61] | [62] | [63] | [64] | [65]
> 100 µM: all other assays above

CCOC1=C2N=C(C(CC)c3ccccc3F)N=C2C(=O)c2ccccc21 (stereo not given)
74.8 µM: [36]
47.8 µM: [44]
not listed: [2] | [5] | [7] | [13] | [15] | [18] | [21] | [22] | [23] | [24] | [29] | [32] | [34] | [41] | [47] | [59]
> 100 µM: all other assays above
